Our source for the IC50 values is patent publication US11639353B2, “Cyclobutanes- and azetidine-containing mono and spirocyclic compounds as αV integrin inhibitors” (BRISTOL-MYERS SQUIBB COMPANY, priority 2016, dated 2023).

What all share (settings): alternatively SPA-based assay
For one assay, the target named is T1, human αVβ6 (Homo sapiens, UniProt P06756+P18564).
T1 construct: purchased R & D systems 3817-AV
In words: human αVβ6 HTRF binding assay. An outline of the steps: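 Biotinylated recombinant human αVβ6 (1.25 nM final) incubated with FITC-fibronectin (5 nM final) 1 h at RT, then streptavidin-terbium (0.625 nM final) added and left overnight at RT in the dark before HTRF reading. Buffer: 20 mM Tris pH 7.4, 1 mM MgCl2, 1 mM MnCl2, 0.01% Tween 20, 0.01% BSA.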

The target in the next assay is human αVβ8 (Homo sapiens, UniProt P06756+P26012). In words: human αVβ8 HTRF binding assay. The procedure: (§1) All binding assays used the HTRF (homogeneous time resolved fluorescence) technology from Cisbio International, therefore all assays are described as HTRF binding assays. The assay results for the Examples are listed above together with the characterization data. The HTRF binding assays are established for the following integrins: human αVβ6, human αVβ1, human αVβ3, human αVβ5, and human αVβ8. All assays used the following assay buffer: 20 mM Tris, pH 7.4, 1 mM MgCl2, 1 mM MnCl2, 0.01% Tween 20, and 0.01% BSA. Alternatively, a SPA-based assay was used for evaluation of receptor binding.
human αVβ8, sequence (P06756 31-992 limits assumed): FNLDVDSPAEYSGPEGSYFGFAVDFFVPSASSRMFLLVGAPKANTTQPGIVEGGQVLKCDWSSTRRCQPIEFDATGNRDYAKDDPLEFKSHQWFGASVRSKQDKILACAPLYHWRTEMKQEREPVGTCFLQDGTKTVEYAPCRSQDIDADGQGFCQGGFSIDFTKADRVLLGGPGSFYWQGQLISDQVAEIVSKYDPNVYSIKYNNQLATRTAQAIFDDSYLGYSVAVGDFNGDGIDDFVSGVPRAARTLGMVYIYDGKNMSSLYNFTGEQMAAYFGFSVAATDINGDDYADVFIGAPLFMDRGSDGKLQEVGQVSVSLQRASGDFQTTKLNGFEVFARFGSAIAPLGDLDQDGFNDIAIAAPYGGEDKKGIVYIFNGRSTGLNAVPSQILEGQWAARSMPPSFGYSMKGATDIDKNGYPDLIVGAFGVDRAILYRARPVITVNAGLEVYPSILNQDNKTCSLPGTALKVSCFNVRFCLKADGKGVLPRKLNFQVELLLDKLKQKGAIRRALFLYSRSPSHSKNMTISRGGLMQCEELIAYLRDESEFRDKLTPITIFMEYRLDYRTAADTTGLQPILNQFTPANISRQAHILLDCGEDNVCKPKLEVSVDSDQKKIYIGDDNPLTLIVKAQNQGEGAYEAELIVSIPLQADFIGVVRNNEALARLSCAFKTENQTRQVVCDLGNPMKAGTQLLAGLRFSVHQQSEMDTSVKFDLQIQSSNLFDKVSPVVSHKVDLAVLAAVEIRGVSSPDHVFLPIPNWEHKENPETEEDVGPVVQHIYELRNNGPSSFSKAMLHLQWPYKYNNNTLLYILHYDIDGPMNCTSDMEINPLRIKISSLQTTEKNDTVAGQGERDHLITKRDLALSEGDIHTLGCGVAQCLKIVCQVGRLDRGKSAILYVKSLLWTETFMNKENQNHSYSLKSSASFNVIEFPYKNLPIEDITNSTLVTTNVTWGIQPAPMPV
human αVβ8, sequence (P26012 43-684 limits assumed): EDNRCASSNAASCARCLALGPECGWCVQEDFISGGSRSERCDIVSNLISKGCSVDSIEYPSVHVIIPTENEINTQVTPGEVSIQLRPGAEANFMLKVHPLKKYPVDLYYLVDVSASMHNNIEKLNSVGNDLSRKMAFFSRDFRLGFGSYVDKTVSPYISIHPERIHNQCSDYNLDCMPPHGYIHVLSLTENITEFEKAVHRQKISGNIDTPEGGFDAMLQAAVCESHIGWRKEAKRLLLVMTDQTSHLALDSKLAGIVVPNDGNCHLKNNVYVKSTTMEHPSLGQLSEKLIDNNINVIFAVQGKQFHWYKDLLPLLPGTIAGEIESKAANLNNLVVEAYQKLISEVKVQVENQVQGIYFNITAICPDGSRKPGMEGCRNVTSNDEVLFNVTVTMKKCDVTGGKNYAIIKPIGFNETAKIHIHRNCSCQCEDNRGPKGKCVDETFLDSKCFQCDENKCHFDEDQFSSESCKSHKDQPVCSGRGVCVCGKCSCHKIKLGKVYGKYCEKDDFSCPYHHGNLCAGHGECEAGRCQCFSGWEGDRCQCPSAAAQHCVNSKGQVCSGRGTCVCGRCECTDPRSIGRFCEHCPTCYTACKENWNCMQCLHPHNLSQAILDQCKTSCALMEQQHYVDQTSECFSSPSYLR
(§2) The SPA-based assay was carried out according to the protocol and procedures similar to the ones described in the following reference with appropriate modifications to agents and ligands which are readily understood by one skilled in the art: Pachter J A, Zhang R, Mayer-Ezell R., “Scintillation proximity assay to measure binding of soluble fibronectin to antibody-captured αVβ1 integrin” Anal Biochem. 1995 Sep. 1; 230(1):101-7.

The target in the next assay is human αVβ3 (Homo sapiens, UniProt P05106+P06756). In words: human αVβ3 HTRF binding assay. The procedure: as §1, §2
human αVβ3, sequence (P06756 31-992 limits assumed): as the sequence (P06756 31-992 limits assumed) above
human αVβ3, sequence (P05106 27-718 limits assumed): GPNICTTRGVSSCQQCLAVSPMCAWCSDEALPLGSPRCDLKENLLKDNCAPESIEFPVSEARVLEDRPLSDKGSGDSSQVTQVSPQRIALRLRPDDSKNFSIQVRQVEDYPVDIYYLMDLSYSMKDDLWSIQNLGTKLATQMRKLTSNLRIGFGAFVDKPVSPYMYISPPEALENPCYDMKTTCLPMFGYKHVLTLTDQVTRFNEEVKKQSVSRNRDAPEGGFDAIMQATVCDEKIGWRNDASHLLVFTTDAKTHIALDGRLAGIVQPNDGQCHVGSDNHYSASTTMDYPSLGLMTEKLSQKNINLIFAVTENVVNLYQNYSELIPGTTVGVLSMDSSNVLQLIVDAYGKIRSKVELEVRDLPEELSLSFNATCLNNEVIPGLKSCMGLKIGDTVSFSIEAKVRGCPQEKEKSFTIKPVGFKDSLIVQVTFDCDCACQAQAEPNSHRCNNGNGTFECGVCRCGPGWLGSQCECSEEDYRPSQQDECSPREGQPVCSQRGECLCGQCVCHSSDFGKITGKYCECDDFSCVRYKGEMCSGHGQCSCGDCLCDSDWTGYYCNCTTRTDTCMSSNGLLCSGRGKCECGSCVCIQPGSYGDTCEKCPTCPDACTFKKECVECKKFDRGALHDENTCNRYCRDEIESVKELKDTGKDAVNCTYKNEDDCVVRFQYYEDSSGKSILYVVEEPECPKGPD
For orientation: TR-FRET usually uses a lanthanide donor and a delayed reading to cut background.

The next assay concerns the target human αVβ5 (Homo sapiens, UniProt P06756+P18084). In words: human αVβ5 HTRF binding assay. The procedure: as §1, §2
For the next assay, the target named is human αVβ1 (Homo sapiens, UniProt P05556+P06756). In words: human αVβ1 HTRF binding assay. Here is the method:
as §1, §2

T1 sequence (P06756 31-992 limits assumed): as the sequence (P06756 31-992 limits assumed) above
T1 sequence (P18564 22-707 limits assumed): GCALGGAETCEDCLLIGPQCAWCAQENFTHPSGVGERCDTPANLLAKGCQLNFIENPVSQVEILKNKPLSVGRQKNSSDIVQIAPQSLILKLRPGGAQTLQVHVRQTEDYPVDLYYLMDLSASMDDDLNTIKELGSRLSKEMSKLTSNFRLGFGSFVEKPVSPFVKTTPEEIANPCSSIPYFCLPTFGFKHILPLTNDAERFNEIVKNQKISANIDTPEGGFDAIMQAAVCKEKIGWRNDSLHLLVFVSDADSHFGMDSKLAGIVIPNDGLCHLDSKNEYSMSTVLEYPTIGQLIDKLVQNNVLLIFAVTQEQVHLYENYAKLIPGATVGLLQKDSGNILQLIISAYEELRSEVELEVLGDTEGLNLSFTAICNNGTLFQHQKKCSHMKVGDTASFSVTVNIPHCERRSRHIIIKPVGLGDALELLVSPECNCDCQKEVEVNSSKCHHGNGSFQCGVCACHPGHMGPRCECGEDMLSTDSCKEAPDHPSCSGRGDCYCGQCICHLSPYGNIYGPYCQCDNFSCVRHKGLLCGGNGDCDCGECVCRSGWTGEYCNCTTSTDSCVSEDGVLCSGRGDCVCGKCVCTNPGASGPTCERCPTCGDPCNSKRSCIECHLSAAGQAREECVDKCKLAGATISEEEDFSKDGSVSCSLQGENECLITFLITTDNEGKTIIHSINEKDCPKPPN
human αVβ5, sequence (P06756 31-992 limits assumed): as the sequence (P06756 31-992 limits assumed) above
human αVβ5, sequence (P18084 24-719 limits assumed): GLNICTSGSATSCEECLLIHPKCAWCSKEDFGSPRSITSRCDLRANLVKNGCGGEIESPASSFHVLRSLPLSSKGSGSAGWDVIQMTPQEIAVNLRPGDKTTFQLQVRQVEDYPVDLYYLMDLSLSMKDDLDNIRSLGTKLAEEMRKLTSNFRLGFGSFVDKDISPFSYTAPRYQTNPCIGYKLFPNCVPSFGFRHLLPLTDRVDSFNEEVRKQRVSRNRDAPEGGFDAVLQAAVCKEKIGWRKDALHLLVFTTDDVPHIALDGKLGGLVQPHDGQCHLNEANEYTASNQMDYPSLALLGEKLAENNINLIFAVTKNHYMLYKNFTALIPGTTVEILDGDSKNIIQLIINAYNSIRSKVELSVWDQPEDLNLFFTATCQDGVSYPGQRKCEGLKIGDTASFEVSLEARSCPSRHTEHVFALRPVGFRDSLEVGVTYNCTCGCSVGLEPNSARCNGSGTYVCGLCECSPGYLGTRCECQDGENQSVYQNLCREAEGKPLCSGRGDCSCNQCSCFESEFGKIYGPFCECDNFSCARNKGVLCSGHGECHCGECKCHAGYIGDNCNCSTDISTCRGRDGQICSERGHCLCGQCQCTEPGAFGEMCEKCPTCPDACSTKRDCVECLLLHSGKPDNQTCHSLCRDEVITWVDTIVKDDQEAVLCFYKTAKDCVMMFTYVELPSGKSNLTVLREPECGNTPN
human αVβ1, sequence (P06756 31-992 limits assumed): as the sequence (P06756 31-992 limits assumed) above
human αVβ1, sequence (P05556 21-728 limits assumed): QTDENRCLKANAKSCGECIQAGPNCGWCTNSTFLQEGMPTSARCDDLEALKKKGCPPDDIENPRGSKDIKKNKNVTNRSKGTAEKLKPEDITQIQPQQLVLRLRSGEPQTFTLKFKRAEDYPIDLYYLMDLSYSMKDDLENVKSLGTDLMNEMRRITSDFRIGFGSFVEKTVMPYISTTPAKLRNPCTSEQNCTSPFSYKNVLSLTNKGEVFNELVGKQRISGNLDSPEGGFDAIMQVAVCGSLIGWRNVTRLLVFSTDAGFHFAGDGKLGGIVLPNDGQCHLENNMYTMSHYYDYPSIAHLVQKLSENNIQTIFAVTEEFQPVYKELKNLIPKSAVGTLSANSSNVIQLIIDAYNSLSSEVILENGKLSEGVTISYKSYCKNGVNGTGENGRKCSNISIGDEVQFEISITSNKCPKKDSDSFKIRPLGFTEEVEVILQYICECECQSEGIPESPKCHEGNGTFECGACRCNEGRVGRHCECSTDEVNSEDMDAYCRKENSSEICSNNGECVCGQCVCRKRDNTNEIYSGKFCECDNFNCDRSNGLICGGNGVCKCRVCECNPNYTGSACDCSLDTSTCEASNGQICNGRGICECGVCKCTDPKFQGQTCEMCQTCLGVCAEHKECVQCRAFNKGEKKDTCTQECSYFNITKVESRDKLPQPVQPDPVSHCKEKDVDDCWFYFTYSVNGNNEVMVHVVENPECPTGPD

As to `COc1ncc([C@H](CC(=O)O)NC(=O)[C@H]2C[C@@H](CCc3ccc4c(n3)NCCC4)C2)cn1` [Example 83], the IC50 on human αVβ6 is 2 nM; on human αVβ8 it was 1400 nM; at human αVβ3 it was 3.2 nM; on human αVβ5, 150 nM; on human αVβ1, 4000 nM.

For the compound `O=C(N[C@@H](CNC(=O)C1CC(CCc2ccc3c(n2)NCCC3)C1)C(=O)O)OCc1ccccc1` (stereo partly drawn) [Example 58], the IC50 at human αVβ6 was found to be 0.44 nM; at human αVβ8, 62 nM; on human αVβ3, 2.4 nM; at human αVβ5, 0.15 nM; on human αVβ1, 7.6 nM.

As for `COc1ccc([C@H](CC(=O)O)N2CC(CCCCc3ccc4c(n3)NCCC4)C2=O)cn1` (stereo partly drawn) [Example 9, (3S)-3-(6-Methoxypyridin-3-yl)-3-(2-oxo-3-(4-(5,6,7,8-tetrahydro-1,8-naphthyridin-2-yl)butyl)azetidin-1-yl)propanoic acid], the IC50 on human αVβ6 was determined as 1.9 nM; at human αVβ8, 630 nM; on human αVβ3 it was 1.8 nM; on human αVβ5, 1.2 nM; on human αVβ1, 400 nM.

As to `COc1ccc([C@H](CC(=O)O)NC(=O)[C@H]2C[C@H](CCc3ccc4c(n3)NCCC4)C2)cc1F` [Example 53], the half-maximal inhibitory concentration (IC50) on human αVβ6 is 0.52 nM; at human αVβ8, 130 nM; at human αVβ3, 2.4 nM; at human αVβ5, 1.8 nM; at human αVβ1 it was 38 nM.

For the compound `O=C(O)C[C@@H](c1cnc2ccccc2c1)N1CC(CCCCc2ccc3c(n2)NCCC3)C1=O` (stereo partly drawn) [Example 106], the 50% inhibitory concentration (IC50) at human αVβ6 worked out at 2 nM; at human αVβ8 it was 270 nM; at human αVβ3 it was 2.5 nM; on human αVβ5 it was 5.46 nM; at human αVβ1, 220 nM.

Turning to `Cc1cc(C)c(S(=O)(=O)N[C@@H](CNC(=O)C2(F)CN(CCc3ccc4c(n3)NCCC4)C2)C(=O)O)c(C)c1` [Example 13, (S)-3-(3-Fluoro-1-(2-(5,6,7,8-tetrahydro-1,8-naphthyridin-2-yl)ethyl)azetidine-3-carboxamido)-2-(2,4,6-trimethylphenylsulfonamido)propanoic acid], the IC50 amounted to 0.6 nM on human αVβ6; 30 nM on human αVβ8; 4.1 nM on human αVβ3; 2 nM at human αVβ5; 84 nM on human αVβ1.

Turning to `O=C(O)C[C@H](NC(=O)C1(F)CN(CCc2ccc3c(n2)NCCC3)C1)c1cnc2ccccc2c1` [Example 80], the IC50 at human αVβ6 is 0.62 nM; on human αVβ8 it was 49 nM; at human αVβ3, 2.3 nM; at human αVβ5 it was 2.1 nM; on human αVβ1, 900 nM.

As to `O=C(O)C[C@H](NC(=O)N1CC(CCc2ccc3c(n2)NCCC3)C1)c1ccc2c(c1)OCC2` [Example 97], the IC50 turned out to be 0.64 nM at human αVβ6; 280 nM at human αVβ8; 4.4 nM on human αVβ3; 1 nM at human αVβ5; 710 nM at human αVβ1.

On to `O=C(N[C@@H](CNC(=O)[C@H]1C[C@H](CCc2ccc3c(n2)NCCC3)C1)C(=O)O)OCc1ccccc1` [Example 78], for which the IC50 on human αVβ6 was determined as 0.97 nM; on human αVβ8 it was 38 nM; on human αVβ3, 4.2 nM; on human αVβ5, 0.42 nM; on human αVβ1, 37 nM.

On to `COc1ncc([C@H](CC(=O)O)NC(=O)[C@H]2C[C@H](CCc3ccc4c(n3)NCCC4)C2)cn1` [Example 82], for which the IC50 was 0.78 nM at human αVβ6; 470 nM at human αVβ8; 4.2 nM on human αVβ3; 15 nM on human αVβ5; 200 nM on human αVβ1.

For the compound `O=C(O)C[C@H](NC(=O)[C@H]1C[C@H](CCc2ccc3c(n2)NCCC3)C1)c1cncnc1` [Example 90], the IC50 is 1.7 nM on human αVβ6, 1100 nM on human αVβ8, 120 nM on human αVβ3 and 520 nM at human αVβ1.

Consider `O=C(N[C@@H](CNC(=O)[C@H]1C[C@@H](CCc2ccc3c(n2)NCCC3)C1)C(=O)O)OCc1ccccc1` [Example 77], for which the IC50 on human αVβ6 is 0.54 nM; on human αVβ8, 82 nM; at human αVβ3 it was 2 nM; on human αVβ5 it was 0.01 nM; on human αVβ1, 48 nM.

With `O=C(O)C[C@H](NC(=O)[C@H]1C[C@H](CCc2ccc3c(n2)NCCC3)C1)c1cnc2ccccc2c1` [Example 84], the 50% inhibitory concentration (IC50) came out at 0.62 nM at human αVβ6; 84 nM at human αVβ8; 4.7 nM at human αVβ3; 41 nM at human αVβ5; 60 nM at human αVβ1.

Regarding `COc1ccc([C@H](CC(=O)O)N2CC(CCCCc3ccc4c(n3)NCCC4)C2)cc1F` [Example 27, (S)-3-(3-Fluoro-4-methoxyphenyl)-3-(3-(4-(5,6,7,8-tetrahydro-1,8-naphthyridin-2-yl)butyl)azetidin-1-yl)propanoic acid], the results for the IC50 on human αVβ6 and on human αVβ8 were 0.58 nM and 11 nM, respectively.

Consider `Cc1ncc([C@H](CC(=O)O)NC(=O)[C@H]2C[C@@H](CCc3ccc4c(n3)NCCC4)C2)cn1` [Example 87], for which the IC50 is 1.1 nM at human αVβ6; 940 nM on human αVβ8; 3.8 nM at human αVβ3; 8.8 nM at human αVβ5; 2200 nM at human αVβ1.

For `O=C(O)C[C@@H](c1ccc2c(c1)CCO2)N1CC(CCCCc2ccc3c(n2)NCCC3)C1=O` (stereo partly drawn) [Example 110], the IC50 stood at 1.4 nM at human αVβ6; 48 nM on human αVβ8; 7.1 nM at human αVβ3; 34 nM on human αVβ5; 210 nM at human αVβ1.

In the case of `Cc1cc(C)c(S(=O)(=O)N[C@@H](CNC(=O)[C@H]2C[C@H](CCc3ccc4c(n3)NCCC4)C2)C(=O)O)c(C)c1` [Example 52], the 50% inhibitory concentration (IC50) at human αVβ6 was 0.37 nM; at human αVβ8 it was 15 nM; on human αVβ3, 2.08 nM; at human αVβ5, 0.2 nM; on human αVβ1 it was 3.1 nM.

Take `COc1ccc([C@H](CC(=O)O)NC(=O)C2CC(CCc3ccc4c(n3)NCCC4)C2)cn1` (stereo partly drawn) [Example 56]: the IC50 stood at 0.57 nM on human αVβ6; 55 nM at human αVβ8; 2 nM at human αVβ3; 0.58 nM on human αVβ5; 67 nM on human αVβ1.

Turning to `O=C(O)C[C@H](NC(=O)[C@H]1C[C@@H](CCc2ccc3c(n2)NCCC3)C1)c1ccc2c(c1)OCC2` [Example 89], the IC50 was 2.2 nM on human αVβ6, 250 nM at human αVβ8 and 1.5 nM at human αVβ3.

In the case of `O=C(O)C[C@@H](c1ccc2c(c1)OCC2)N1CC(CCCCc2ccc3c(n2)NCCC3)C1=O` (stereo partly drawn) [Example 104], the IC50 at human αVβ6 came out at 2.23 nM; at human αVβ8, 110 nM; at human αVβ3, 2.4 nM; at human αVβ1, 329 nM.

As to `COc1ccc([C@H](CC(=O)O)NC(=O)[C@H]2C[C@H](CCc3ccc4c(n3)NCCC4)C2)cn1` [Example 59], the IC50 stood at 0.64 nM at human αVβ6; 270 nM on human αVβ8; 2.7 nM at human αVβ3; 0.47 nM at human αVβ5; 87.5 nM on human αVβ1.

Consider `Cc1ncc([C@H](CC(=O)O)NC(=O)[C@H]2C[C@H](CCc3ccc4c(n3)NCCC4)C2)cn1` [Example 86], for which the IC50 at human αVβ6 was 1.5 nM; on human αVβ8, 790 nM; at human αVβ3, 2.7 nM.

In the case of `O=C(O)C[C@H](NC(=O)[C@H]1C[C@@H](CCc2ccc3c(n2)NCCC3)C1)c1cnc2ccccc2c1` [Example 85], the IC50 at human αVβ6 is 0.68 nM; at human αVβ8, 140 nM; on human αVβ3, 2.1 nM; on human αVβ1 it was 330 nM.

Consider `Cc1cc(C)c(S(=O)(=O)N[C@@H](CNC(=O)C2CN(CCc3ccc4c(n3)NCCC4)C2)C(=O)O)c(C)c1` [Example 36], for which the IC50 was found to be 0.76 nM at human αVβ6, 9.4 nM on human αVβ8, 3.8 nM at human αVβ3 and 2 nM on human αVβ5.

For the compound `Cc1ncc([C@H](CC(=O)O)N2CC(CCCCc3ccc4c(n3)NCCC4)C2)cn1` [Example 26, (S)-3-(2-Methylpyrimidin-5-yl)-3-(3-(4-(5,6,7,8-tetrahydro-1,8-naphthyridin-2-yl)butyl)azetidin-1-yl)propanoic acid], the IC50 on human αVβ6 came out at 1.11 nM; at human αVβ3 it was 1.76 nM; at human αVβ5, 2 nM; on human αVβ1 it was 8630 nM.

As for `Cc1cc(C)c(S(=O)(=O)N[C@@H](CNC(=O)[C@H]2C[C@@H](CCc3ccc4c(n3)NCCC4)C2)C(=O)O)c(C)c1` [Example 51], the IC50 at human αVβ6 was found to be 0.33 nM; on human αVβ8, 15 nM; on human αVβ3, 2.1 nM; at human αVβ5, 0.44 nM.

For the compound `COc1ccc(C(CC(=O)O)C2CC3(CC(CCc4ccc5c(n4)NCCC5)C3)C2)cn1` (stereo not drawn) [Example 141], on human αVβ6, the IC50 was found to be 2.9 nM. This counts as single-digit nanomolar.

In turn, `Cc1cc(C)c(S(=O)(=O)N[C@@H](CN2CC(CCCc3ccc4c(n3)NCCC4)C2=O)C(=O)O)c(C)c1` (single isomer, unassigned) [Example 185] had an IC50 at human αVβ6 of 18 nM.

For `COc1ccc([C@H](CC(=O)O)NC(=O)[C@H]2C[C@@H](CCc3ccc4c(n3)NCCC4)C2)cn1` [Example 60], the IC50 on human αVβ6 is 1 nM.

The IC50 is the midpoint of a concentration-inhibition curve. Lower therefore signals greater potency in that assay.
